Calls of active or inactive are those of the source.
Experiments:
Bacillus subtilis = experiment: Antimicrobial activity against Bacillus subtilis at incubated for 24 hrs by paper disk method; format: functional, organism-based
NCI-H2122 = experiment: Cytotoxicity against human NCI-H2122 cells assessed as reduction in cell viability at 1 nM to 50 uM incubated for 96 hrs by Cell-titer Glo reagent based assay; format: functional
Pseudomonas aeruginosa = experiment: Antimicrobial activity against Pseudomonas aeruginosa incubated for 24 hrs by paper disk method; format: functional, organism-based
A549 = experiment: Cytotoxicity against human A549 cells assessed as reduction in cell viability at 1 nM to 50 uM incubated for 96 hrs by Cell-titer Glo reagent based assay; format: functional
Homo sapiens = organism: Homo sapiens; experiment: Cytotoxicity against human HCC366 cells assessed as reduction in cell viability at 1 nM to 50 uM incubated for 96 hrs by Cell-titer Glo reagent based assay; format: functional
HCC44 = experiment: Cytotoxicity against human HCC44 cells assessed as reduction in cell viability at 1 nM to 50 uM incubated for 96 hrs by Cell-titer Glo reagent based assay; format: functional

Measured: Activity

CC(C)C/C=C/C=C/C(=O)NC1=C[C@@](O)(CCC(N)=O)[C@H]2O[C@H]2[C@@H]1O
inactive: all assays above

CCC/C=C/C=C/C(=O)NC1=C[C@@](O)(CCC(N)=O)[C@H]2O[C@H]2[C@@H]1O
inactive: all assays above

CC(C)C/C=C/C=C/C(=O)N[C@H]1CCCNC1=O
inactive: all assays above

CC(C)C/C=C/C=C/C(=O)N(CCO)c1cc(CCC(=O)O)c(O)cc1O
inactive: all assays above

CC(C)/C=C/C=C/C(=O)NC1=C[C@@](O)(CCC(N)=O)[C@H]2O[C@H]2[C@@H]1O
inactive: all assays above
